Reference: patent US6274557A, “Inhibition of nitric oxide synthase by amino acids and dipeptides” (Northwestern University, priority 1999, dated 2001)
pIC50: −log10 of the molar value. Read-outs that look alike come from different tables or passages of the source.

Columns and labels:
[1] = target: neuronal nitric oxide synthase (nNOS) from bovine brain (Bos taurus, UniProt A0A3Q1M6M2); experiment: Hemoglobin capture assay of nitric oxide formation, nNOS
Experimental: (§1) Nitric oxide formation was measured by using the hemoglobin capture assay. […] The production of nitric oxide by eNOS was measured as described. […] All assays were in a final volume of 600 μL and were initiated with enzyme.
(§2) The reversible inhibition of NOS by the dipeptide analogs was studied under initial rate conditions with the hemoglobin assay as described above. […] With various L-arginine and inhibitor concentrations.

[2] = target: recombinant murine macrophage nitric oxide synthase (iNOS) (Mus musculus, UniProt P29477); experiment: Hemoglobin capture assay of nitric oxide formation, iNOS
Experimental: as §1, §2

[3] = target: T1, recombinant bovine endothelial nitric oxide synthase (eNOS) (Bos taurus, UniProt P29473); experiment: Hemoglobin capture assay of nitric oxide formation, eNOS; type: biochemical
T1 construct: made in house; host or cells: E. coli
Experimental: as §1, §2

[4] = system: nitric oxide synthases (nNOS, iNOS, eNOS); settings: literature, methyl: eNOS and nNOS over iNOS, ethyl: iNOS over nNOS and eNOS, cited from earlier work
[5] = N-substituted L-arginines, ratio of the inverse of the Ki values (IC50 for methyl, ethyl)

Sequence of neuronal nitric oxide synthase (nNOS) from bovine brain (A0A3Q1M6M2 entry or part of it): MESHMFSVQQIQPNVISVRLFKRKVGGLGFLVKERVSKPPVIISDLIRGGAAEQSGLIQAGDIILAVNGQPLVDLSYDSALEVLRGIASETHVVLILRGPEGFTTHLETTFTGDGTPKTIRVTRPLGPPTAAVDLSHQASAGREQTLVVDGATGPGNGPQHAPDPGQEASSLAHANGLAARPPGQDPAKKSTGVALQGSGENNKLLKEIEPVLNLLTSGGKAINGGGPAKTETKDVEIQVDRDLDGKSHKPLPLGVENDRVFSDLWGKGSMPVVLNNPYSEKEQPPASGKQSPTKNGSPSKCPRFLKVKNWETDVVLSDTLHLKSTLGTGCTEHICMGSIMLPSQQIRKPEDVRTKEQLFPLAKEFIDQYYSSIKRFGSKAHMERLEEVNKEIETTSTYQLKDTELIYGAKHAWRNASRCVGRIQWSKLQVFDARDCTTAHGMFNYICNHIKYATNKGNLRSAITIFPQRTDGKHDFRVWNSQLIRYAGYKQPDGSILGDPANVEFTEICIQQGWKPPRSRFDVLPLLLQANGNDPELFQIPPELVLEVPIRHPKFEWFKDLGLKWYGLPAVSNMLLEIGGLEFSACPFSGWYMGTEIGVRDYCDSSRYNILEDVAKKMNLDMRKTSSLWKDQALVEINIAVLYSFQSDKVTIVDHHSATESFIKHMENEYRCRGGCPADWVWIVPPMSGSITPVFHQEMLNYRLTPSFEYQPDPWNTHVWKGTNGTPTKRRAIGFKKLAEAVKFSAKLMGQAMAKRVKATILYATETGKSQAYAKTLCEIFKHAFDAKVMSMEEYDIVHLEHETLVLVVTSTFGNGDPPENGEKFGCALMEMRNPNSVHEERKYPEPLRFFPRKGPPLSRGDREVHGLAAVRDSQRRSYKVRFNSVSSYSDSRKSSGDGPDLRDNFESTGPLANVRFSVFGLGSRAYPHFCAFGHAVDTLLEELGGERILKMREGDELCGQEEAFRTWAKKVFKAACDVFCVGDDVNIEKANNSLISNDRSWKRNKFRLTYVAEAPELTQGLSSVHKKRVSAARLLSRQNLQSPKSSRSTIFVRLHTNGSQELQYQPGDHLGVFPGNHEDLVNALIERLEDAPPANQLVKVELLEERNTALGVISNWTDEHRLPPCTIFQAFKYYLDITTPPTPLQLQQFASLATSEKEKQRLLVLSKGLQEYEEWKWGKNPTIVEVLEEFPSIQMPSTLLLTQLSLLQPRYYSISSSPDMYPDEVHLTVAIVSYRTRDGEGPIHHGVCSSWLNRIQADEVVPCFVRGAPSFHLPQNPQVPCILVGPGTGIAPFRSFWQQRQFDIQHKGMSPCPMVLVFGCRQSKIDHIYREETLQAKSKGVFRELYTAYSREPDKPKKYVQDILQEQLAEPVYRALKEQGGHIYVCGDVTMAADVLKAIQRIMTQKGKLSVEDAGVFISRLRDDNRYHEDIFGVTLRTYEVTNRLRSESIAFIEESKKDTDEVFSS

**Q.** Which results are given for `CCNC(=N)NCCC[C@H](N)C(=O)O` [ethyl, N^ω -ethyl-L-arginine, reference compound]?
**A.** pIC50 [1]: 4.80; Selectivity nNOS/eNOS [1, 5]: 0.6; Selectivity nNOS/iNOS [1, 5]: 0.4; pIC50 [2]: 5.21; pIC50 [3]: 5.02; isoform selectivity factor ([4]; listed as N^ω --ethyl-L-arginine): ~2; isoform selectivity factor ([4]; listed as N^ω -ethyl-L-arginine): about 2
